From PubChem BioAssay (NCI)
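Growth conditions: 96-well plates. Treatment: test compound, 48 hours, 5 concentrations. Analysis: linear interpolation between bracketing concentrations; unreached endpoints set to highest concentration. At the GI50, growth is halved. Definition used: TGI = concentration required for complete inhibition of growth.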

Assays:
Assay in all cases: NCI tumour cell line growth inhibition, 48 h
MDA-MB-468 breast = system: MDA-MB-468 breast
HCC-2998 colon = system: HCC-2998 colon
HCT-15 colon = system: HCT-15 colon
UO-31 renal = system: UO-31 renal
MDA-MB-435 = system: MDA-MB-435
EKVX NSCLC = system: EKVX NSCLC
MALME-3M melanoma = system: MALME-3M melanoma
OVCAR-5 ovarian = system: OVCAR-5 ovarian
HT29 colon = system: HT29 colon
CAKI-1 renal = system: CAKI-1 renal
T-47D breast = system: T-47D breast
IGROV1 ovarian = system: IGROV1 ovarian
NCI-H226 lung = system: NCI-H226 lung
KM12 colon = system: KM12 colon
PC-3 prostate = system: PC-3 prostate
OVCAR-4 ovarian = system: OVCAR-4 ovarian
HOP-92 NSCLC = system: HOP-92 NSCLC
NCI-H23 lung = system: NCI-H23 lung
K-562 leukemia = system: K-562 leukemia
NCI-H522 lung = system: NCI-H522 lung
SK-OV-3 ovarian = system: SK-OV-3 ovarian
SK-MEL-2 melanoma = system: SK-MEL-2 melanoma
OVCAR-3 ovarian = system: OVCAR-3 ovarian
RXF 393 renal = system: RXF 393 renal
A498 renal = system: A498 renal
BT-549 breast = system: BT-549 breast
SW-620 colon = system: SW-620 colon
MCF7 breast = system: MCF7 breast
OVCAR-8 ovarian = system: OVCAR-8 ovarian
SNB-19 CNS = system: SNB-19 CNS
SK-MEL-28 melanoma = system: SK-MEL-28 melanoma
SN12C renal = system: SN12C renal
ACHN renal = system: ACHN renal
SF-268 CNS = system: SF-268 CNS
UACC-62 melanoma = system: UACC-62 melanoma
SK-MEL-5 melanoma = system: SK-MEL-5 melanoma
HCT-116 colon = system: HCT-116 colon
SF-295 CNS = system: SF-295 CNS
SR leukemia = system: SR leukemia
U251 CNS = system: U251 CNS
786-0 renal = system: 786-0 renal
HOP-62 NSCLC = system: HOP-62 NSCLC
NCI-H460 lung = system: NCI-H460 lung
SF-539 CNS = system: SF-539 CNS
MDA-MB-231 breast = system: MDA-MB-231 breast
M14 melanoma = system: M14 melanoma
UACC-257 melanoma = system: UACC-257 melanoma
DU-145 prostate = system: DU-145 prostate
A549 NSCLC = system: A549 NSCLC
CCRF-CEM leukemia = system: CCRF-CEM leukemia
RPMI-8226 leukemia = system: RPMI-8226 leukemia
COLO 205 colon = system: COLO 205 colon
SNB-75 CNS = system: SNB-75 CNS
TK-10 renal = system: TK-10 renal
HS 578T breast = system: HS 578T breast

Cc1cc(=O)oc2cc(OCCCOc3ccc(/C=C/C(=O)Nc4ccccc4N)cc3)ccc12
GI50 (MDA-MB-468 breast): 1.94 µM | TGI (MDA-MB-468 breast): 8.14 µM | GI50 (HCC-2998 colon): 3.17 µM | TGI (HCC-2998 colon): > 100 µM | GI50 (HCT-15 colon): 2.4 µM | TGI (HCT-15 colon): > 100 µM | GI50 (UO-31 renal): 0.775 µM | TGI (UO-31 renal): > 100 µM | GI50 (MDA-MB-435): 4.42 µM | TGI (MDA-MB-435): > 100 µM | GI50 (EKVX NSCLC): 3.5 µM | TGI (EKVX NSCLC): > 100 µM | GI50 (MALME-3M melanoma): 3.27 µM | TGI (MALME-3M melanoma): > 100 µM | GI50 (OVCAR-5 ovarian): 4.34 µM | TGI (OVCAR-5 ovarian): > 100 µM | GI50 (HT29 colon): 4.8 µM | TGI (HT29 colon): > 100 µM | GI50 (CAKI-1 renal): 3.38 µM | TGI (CAKI-1 renal): > 100 µM | GI50 (T-47D breast): 0.749 µM | TGI (T-47D breast): > 100 µM | GI50 (IGROV1 ovarian): 1.28 µM | TGI (IGROV1 ovarian): > 100 µM | GI50 (NCI-H226 lung): 2.45 µM | TGI (NCI-H226 lung): > 100 µM | GI50 (KM12 colon): 3.9 µM | TGI (KM12 colon): > 100 µM | GI50 (PC-3 prostate): 3.07 µM | TGI (PC-3 prostate): > 100 µM | GI50 (OVCAR-4 ovarian): 2.82 µM | TGI (OVCAR-4 ovarian): > 100 µM | GI50 (HOP-92 NSCLC): 3.91 µM | TGI (HOP-92 NSCLC): > 100 µM | GI50 (NCI-H23 lung): 3.64 µM | TGI (NCI-H23 lung): > 100 µM | GI50 (K-562 leukemia): 0.817 µM | TGI (K-562 leukemia): > 100 µM | GI50 (NCI-H522 lung): 2.79 µM | TGI (NCI-H522 lung): > 100 µM | GI50 (SK-OV-3 ovarian): 5.29 µM | TGI (SK-OV-3 ovarian): > 100 µM | GI50 (SK-MEL-2 melanoma): 3.78 µM | TGI (SK-MEL-2 melanoma): > 100 µM | GI50 (OVCAR-3 ovarian): 2.51 µM | TGI (OVCAR-3 ovarian): > 100 µM | GI50 (RXF 393 renal): 4.16 µM | TGI (RXF 393 renal): > 100 µM | GI50 (A498 renal): 2.34 µM | TGI (A498 renal): 6.7 µM | GI50 (BT-549 breast): 0.923 µM | TGI (BT-549 breast): 3.27 µM | GI50 (SW-620 colon): 3.6 µM | TGI (SW-620 colon): > 100 µM | GI50 (MCF7 breast): 0.702 µM | TGI (MCF7 breast): > 100 µM | GI50 (OVCAR-8 ovarian): 4.18 µM | TGI (OVCAR-8 ovarian): > 100 µM | GI50 (SNB-19 CNS): 3.72 µM | TGI (SNB-19 CNS): > 100 µM | GI50 (SK-MEL-28 melanoma): 3.6 µM | TGI (SK-MEL-28 melanoma): > 100 µM | GI50 (SN12C renal): 2.22 µM | TGI (SN12C renal): > 100 µM | GI50 (ACHN renal): 4.5 µM | TGI (ACHN renal): > 100 µM | GI50 (SF-268 CNS): 1.95 µM | TGI (SF-268 CNS): > 100 µM | GI50 (UACC-62 melanoma): 2.79 µM | TGI (UACC-62 melanoma): > 100 µM | GI50 (SK-MEL-5 melanoma): 0.716 µM | TGI (SK-MEL-5 melanoma): 2.06 µM | GI50 (HCT-116 colon): 2.24 µM | TGI (HCT-116 colon): > 100 µM | GI50 (SF-295 CNS): 3.42 µM | TGI (SF-295 CNS): > 100 µM | GI50 (SR leukemia): 1.81 µM | TGI (SR leukemia): > 100 µM | GI50 (U251 CNS): 5.49 µM | TGI (U251 CNS): > 100 µM | GI50 (786-0 renal): 3.13 µM | TGI (786-0 renal): > 100 µM | GI50 (HOP-62 NSCLC): 4.93 µM | TGI (HOP-62 NSCLC): > 100 µM | GI50 (NCI-H460 lung): 1.79 µM | TGI (NCI-H460 lung): > 100 µM | GI50 (SF-539 CNS): 2.22 µM | TGI (SF-539 CNS): > 100 µM | GI50 (MDA-MB-231 breast): 3.33 µM | TGI (MDA-MB-231 breast): > 100 µM | GI50 (M14 melanoma): 3.16 µM | TGI (M14 melanoma): > 100 µM | GI50 (UACC-257 melanoma): 3.24 µM | TGI (UACC-257 melanoma): > 100 µM | GI50 (DU-145 prostate): 4.71 µM | TGI (DU-145 prostate): > 100 µM | GI50 (A549 NSCLC): 3.31 µM | TGI (A549 NSCLC): > 100 µM | GI50 (CCRF-CEM leukemia): 0.31 µM | TGI (CCRF-CEM leukemia): 1.91 µM | GI50 (RPMI-8226 leukemia): 0.276 µM | TGI (RPMI-8226 leukemia): 2.35 µM | GI50 (COLO 205 colon): 2.14 µM | TGI (COLO 205 colon): 5.81 µM

COc1cccc2nc(Nc3cccc(NC(=O)c4ccc(CN5CCCN(C)CC5)c(C(F)(F)F)c4)c3)ccc12
GI50 (MDA-MB-468 breast): 1.56 µM | TGI (MDA-MB-468 breast): 2.98 µM | GI50 (HCC-2998 colon): 1.71 µM | TGI (HCC-2998 colon): 3.09 µM | GI50 (HCT-15 colon): 1.62 µM | TGI (HCT-15 colon): 3.03 µM | GI50 (UO-31 renal): 1.74 µM | TGI (UO-31 renal): 3.43 µM | GI50 (EKVX NSCLC): 1.72 µM | TGI (EKVX NSCLC): 3.1 µM | GI50 (MALME-3M melanoma): 1.72 µM | TGI (MALME-3M melanoma): 3.12 µM | GI50 (OVCAR-5 ovarian): 1.71 µM | TGI (OVCAR-5 ovarian): 3.29 µM | GI50 (SNB-75 CNS): 1.52 µM | TGI (SNB-75 CNS): 7.97 µM | GI50 (T-47D breast): 5.43 µM | TGI (T-47D breast): 41.4 µM | GI50 (TK-10 renal): 4.91 µM | TGI (TK-10 renal): 19.3 µM | GI50 (NCI-H226 lung): 1.94 µM | TGI (NCI-H226 lung): 4.65 µM | GI50 (KM12 colon): 2.49 µM | TGI (KM12 colon): 6.14 µM | GI50 (OVCAR-4 ovarian): 2.67 µM | TGI (OVCAR-4 ovarian): 10.7 µM | GI50 (NCI-H23 lung): 1.68 µM | TGI (NCI-H23 lung): 3.07 µM | GI50 (HS 578T breast): 2.46 µM | TGI (HS 578T breast): 8.09 µM | GI50 (SK-OV-3 ovarian): 4.33 µM | TGI (SK-OV-3 ovarian): 21.3 µM | GI50 (SK-MEL-2 melanoma): 2.15 µM | TGI (SK-MEL-2 melanoma): 4.93 µM | GI50 (OVCAR-3 ovarian): 2.14 µM | TGI (OVCAR-3 ovarian): 5.45 µM | GI50 (RXF 393 renal): 1.66 µM | TGI (RXF 393 renal): 3.24 µM | GI50 (A498 renal): 13.5 µM | TGI (A498 renal): 31.4 µM | GI50 (SW-620 colon): 1.75 µM | TGI (SW-620 colon): 3.24 µM | GI50 (MCF7 breast): 1.59 µM | TGI (MCF7 breast): 3 µM | GI50 (OVCAR-8 ovarian): 2.03 µM | TGI (OVCAR-8 ovarian): 4.75 µM | GI50 (SNB-19 CNS): 1.72 µM | TGI (SNB-19 CNS): 3.17 µM | GI50 (ACHN renal): 1.87 µM | TGI (ACHN renal): 3.62 µM | GI50 (SK-MEL-5 melanoma): 1.71 µM | TGI (SK-MEL-5 melanoma): 3.08 µM | GI50 (786-0 renal): 1.72 µM | TGI (786-0 renal): 3.35 µM | GI50 (MDA-MB-231 breast): 1.83 µM | TGI (MDA-MB-231 breast): 3.4 µM | GI50 (DU-145 prostate): 2.19 µM | TGI (DU-145 prostate): 4.91 µM
